Results: US9169254B2, “Spiroimidazolone derivative” (Chugai Seiyaku Kabushiki Kaisha, priority 2009, dated 2015)

Molecular target: T1, human PTH1 receptor (Homo sapiens, UniProt Q03431)
T1 sequence (Q03431 27-593): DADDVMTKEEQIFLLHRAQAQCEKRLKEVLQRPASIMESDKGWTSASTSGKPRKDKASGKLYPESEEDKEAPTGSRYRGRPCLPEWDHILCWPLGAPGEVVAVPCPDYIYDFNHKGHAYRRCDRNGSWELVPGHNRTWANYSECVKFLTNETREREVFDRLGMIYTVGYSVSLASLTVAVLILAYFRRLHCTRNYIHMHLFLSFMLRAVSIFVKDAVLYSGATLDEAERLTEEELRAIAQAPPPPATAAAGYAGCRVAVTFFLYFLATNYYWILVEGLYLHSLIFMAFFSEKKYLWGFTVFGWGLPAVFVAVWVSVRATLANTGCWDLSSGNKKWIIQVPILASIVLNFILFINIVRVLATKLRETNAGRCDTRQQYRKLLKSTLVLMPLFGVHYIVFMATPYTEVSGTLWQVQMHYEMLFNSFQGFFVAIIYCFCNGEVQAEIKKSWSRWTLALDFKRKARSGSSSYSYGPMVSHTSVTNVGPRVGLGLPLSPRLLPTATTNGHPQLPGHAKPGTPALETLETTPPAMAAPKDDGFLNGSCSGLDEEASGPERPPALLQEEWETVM
Assay: In vitro cAMP signal activity in HKRK-B7 cells (LLC-PK1 cells overexpressing the human PTH1 receptor)
Format: cell-based
Details: HKRK-B7 cells; compound at 1×10^−3 M; cAMP produced as percentage of that produced by hPTH(1-34) at 100 nM

In order of falling “cAMP production activity (%)” value:
1. CC(=O)N[C@@H]1CCN(C(=O)c2ccc(CCS(=O)(=O)N3CCC4(CC3)N=C(c3cccc(C(F)(F)F)c3)NC4=O)c(C)c2)C1 [Compound 353, N—[(R)-1-(3-methyl-4-{2-[4-oxo-2-(3-trifluoromethyl-phenyl)-1,3,8-triaza-spiro[4.5]dec-1-ene-8-sulfonyl]-ethyl}-benzoyl)-pyrrolidin-3-yl]-acetamide]  120%
2. Cc1cc(C(=O)N2CCN(CCOCCO)CC2)ccc1CCS(=O)(=O)N1CCC2(CC1)N=C(c1cccc(C(F)(F)F)c1)NC2=O [Compound 362, 8-[2-(4-{4-[2-(2-hydroxy-ethoxy)-ethyl]-piperazine-1-carbonyl}-2-methyl-phenyl)-ethanesulfonyl]-2-(3-trifluoromethyl-phenyl)-1,3,8-triaza-spiro[4.5]dec-1-en-4-one]  97%
3. Cc1cc(C(=O)N2CCN(CCCO)CC2)ccc1CCS(=O)(=O)N1CCC2(CC1)N=C(c1cccc(C(F)(F)F)c1)NC2=O [Compound 366, 8-(2-{4-[4-(3-hydroxy-propyl)-piperazine-1-carbonyl]-2-methyl-phenyl}-ethanesulfonyl)-2-(3-trifluoromethyl-phenyl)-1,3,8-triaza-spiro[4.5]dec-1-en-4-one]  85%
4. Cc1cc(C(=O)N2CC[C@@H](O)C2)ccc1CCS(=O)(=O)N1CCC2(CC1)N=C(c1cccc(C(F)(F)F)c1)NC2=O [Compound 355, 8-{2-[4-((R)-3-hydroxy-pyrrolidine-1-carbonyl)-2-methyl-phenyl]-ethanesulfonyl}-2-(3-trifluoromethyl-phenyl)-1,3,8-triaza-spiro[4.5]dec-1-en-4-one]  84%
5. Cc1cc(C(=O)N2CCN(c3ccccn3)CC2)ccc1CCS(=O)(=O)N1CCC2(CC1)N=C(c1cccc(C(F)(F)F)c1)NC2=O [Compound 361, 8-{2-[2-methyl-4-(4-pyridin-2-yl-piperazine-1-carbonyl)-phenyl]-ethanesulfonyl}-2-(3-trifluoromethyl-phenyl)-1,3,8-triaza-spiro[4.5]dec-1-en-4-one]  82%
6. Cc1cc(C(=O)N2CCC(F)(F)CC2)ccc1CCS(=O)(=O)N1CCC2(CC1)N=C(c1cccc(C(F)(F)F)c1)NC2=O [Compound 365, 8-{2-[4-(4,4-difluoro-piperidine-1-carbonyl)-2-methyl-phenyl]-ethanesulfonyl}-2-(3-trifluoromethyl-phenyl)-1,3,8-triaza-spiro[4.5]dec-1-en-4-one]  81%
7. Cc1cc(C(=O)N2CCC[C@H]2CO)ccc1CCS(=O)(=O)N1CCC2(CC1)N=C(c1cccc(C(F)(F)F)c1)NC2=O [Compound 356, 8-{2-[4-((S)-2-hydroxymethyl-pyrrolidine-1-carbonyl)-2-methyl-phenyl]-ethanesulfonyl}-2-(3-trifluoromethyl-phenyl)-1,3,8-triaza-spiro[4.5]dec-1-en-4-one]  78%
8. Cc1cc(C(=O)N2CCC(CCO)CC2)ccc1CCS(=O)(=O)N1CCC2(CC1)N=C(c1cccc(C(F)(F)F)c1)NC2=O [Compound 357, 8-(2-{4-[4-(2-hydroxy-ethyl)-piperidine-1-carbonyl]-2-methyl-phenyl}-ethanesulfonyl)-2-(3-trifluoromethyl-phenyl)-1,3,8-triaza-spiro[4.5]dec-1-en-4-one]  78%
9. Cc1cc(C(=O)N2CCN(c3nccs3)CC2)ccc1CCS(=O)(=O)N1CCC2(CC1)N=C(c1cccc(C(F)(F)F)c1)NC2=O [Compound 364, 8-{2-[2-methyl-4-(4-thiazol-2-yl-piperazine-1-carbonyl)-phenyl]-ethanesulfonyl}-2-(3-trifluoromethyl-phenyl)-1,3,8-triaza-spiro[4.5]dec-1-en-4-one]  78%
10. Cc1cc(C(=O)N2CCC[C@@H]2CO)ccc1CCS(=O)(=O)N1CCC2(CC1)N=C(c1cccc(C(F)(F)F)c1)NC2=O [Compound 371, 8-{2-[4-((R)-2-hydroxymethyl-pyrrolidine-1-carbonyl)-2-methyl-phenyl]-ethanesulfonyl}-2-(3-trifluoromethyl-phenyl)-1,3,8-triaza-spiro[4.5]dec-1-en-4-one]  72%
11. Cc1noc(C2CCN(C(=O)c3ccc(CCS(=O)(=O)N4CCC5(CC4)N=C(c4cccc(C(F)(F)F)c4)NC5=O)c(C)c3)CC2)n1 [Compound 358, 8-(2-{2-methyl-4-[4-(3-methyl-[1,2,4]oxadiazol-5-yl)-piperidine-1-carbonyl]-phenyl}-ethanesulfonyl)-2-(3-trifluoromethyl-phenyl)-1,3,8-triaza-spiro[4.5]dec-1-en-4-one]  71%
12. Cc1cc(C(=O)N2CCN(CCN3CCOCC3)CC2)ccc1CCS(=O)(=O)N1CCC2(CC1)N=C(c1cccc(C(F)(F)F)c1)NC2=O [Compound 363, 8-(2-{2-methyl-4-[4-(2-morpholin-4-yl-ethyl)-piperazine-1-carbonyl]-phenyl}-ethanesulfonyl)-2-(3-trifluoromethyl-phenyl)-1,3,8-triaza-spiro[4.5]dec-1-en-4-one]  67%
13. Cc1cc(C(=O)N2CC[C@H](O)C2)ccc1CCS(=O)(=O)N1CCC2(CC1)N=C(c1cccc(C(F)(F)F)c1)NC2=O [Compound 370, 8-{2-[4-((S)-3-hydroxy-pyrrolidine-1-carbonyl)-2-methyl-phenyl]-ethanesulfonyl}-2-(3-trifluoromethyl-phenyl)-1,3,8-triaza-spiro[4.5]dec-1-en-4-one]  66%
14. Cc1cc(C(=O)N2CCN(c3ncccn3)CC2)ccc1CCS(=O)(=O)N1CCC2(CC1)N=C(c1cccc(C(F)(F)F)c1)NC2=O [Compound 359, 8-{2-[2-methyl-4-(4-pyrimidin-2-yl-piperazine-1-carbonyl)-phenyl]-ethanesulfonyl}-2-(3-trifluoromethyl-phenyl)-1,3,8-triaza-spiro[4.5]dec-1-en-4-one]  65%
15. Cc1cc(C(=O)N2CCN(S(=O)(=O)N(C)C)CC2)ccc1CCS(=O)(=O)N1CCC2(CC1)N=C(c1cccc(C(F)(F)F)c1)NC2=O [Compound 360, 4-(3-methyl-4-{2-[4-oxo-2-(3-trifluoromethyl-phenyl)-1,3,8-triaza-spiro[4.5]dec-1-ene-8-sulfonyl]-ethyl}-benzoyl)-piperazine-1-sulfonic acid dimethylamide]  62%
16. Cc1cc(C(=O)N2CCC[C@H]2C(N)=O)ccc1CCS(=O)(=O)N1CCC2(CC1)N=C(c1cccc(C(F)(F)F)c1)NC2=O [Compound 367, (S)-1-(3-methyl-4-{2-[4-oxo-2-(3-trifluoromethyl-phenyl)-1,3,8-triaza-spiro[4.5]dec-1-ene-8-sulfonyl]-ethyl}-benzoyl)-pyrrolidine-2-carboxylic acid amide]  50%
17. Cc1cc(C(=O)N2CCC[C@@H]2C(N)=O)ccc1CCS(=O)(=O)N1CCC2(CC1)N=C(c1cccc(C(F)(F)F)c1)NC2=O [Compound 369, (R)-1-(3-methyl-4-{2-[4-oxo-2-(3-trifluoromethyl-phenyl)-1,3,8-triaza-spiro[4.5]dec-1-ene-8-sulfonyl]-ethyl}-benzoyl)-pyrrolidine-2-carboxylic acid amide]  43%
18. Cc1cc(C(=O)N2CC(F)(F)C(F)(F)C2)ccc1CCS(=O)(=O)N1CCC2(CC1)N=C(c1cccc(C(F)(F)F)c1)NC2=O [Compound 368, 8-{2-[2-methyl-4-(3,3,4,4-tetrafluoro-pyrrolidine-1-carbonyl)-phenyl]-ethanesulfonyl}-2-(3-trifluoromethyl-phenyl)-1,3,8-triaza-spiro[4.5]dec-1-en-4-one]  38%
19. Cc1cc(C(=O)N2CCC[C@H]2C(F)(F)F)ccc1CCS(=O)(=O)N1CCC2(CC1)N=C(c1cccc(C(F)(F)F)c1)NC2=O [Compound 354, 8-{2-[2-methyl-4-((S)-2-trifluoromethyl-pyrrolidine-1-carbonyl)-phenyl]-ethanesulfonyl}-2-(3-trifluoromethyl-phenyl)-1,3,8-triaza-spiro[4.5]dec-1-en-4-one]  27%
20. Cc1cc(C(=O)N2CCN(S(C)(=O)=O)CC2)ccc1CCS(=O)(=O)N1CCC2(CC1)N=C(c1cccc(C(F)(F)F)c1)NC2=O [Compound 352, 8-{2-[4-(4-Methanesulfonyl-piperazine-1-carbonyl)-2-methyl-phenyl]-ethanesulfonyl}-2-(3-trifluoromethyl-phenyl)-1,3,8-triaza-spiro[4.5]dec-1-en-4-one]  19%
21. CN(C(=O)c1cccc(C2=NC3(CCN(S(=O)(=O)c4cccc(Cl)c4)CC3)C(=O)N2)c1)c1ccccc1 [Compound 349, 3-[8-(3-chloro-benzenesulfonyl)-4-oxo-1,3,8-triaza-spiro[4.5]dec-1-en-2-yl]-N-methyl-N-phenyl-benzamide]  11%
22. CN(C)C(=O)c1cccc(C2=NC3(CCN(S(=O)(=O)c4cccc(Cl)c4)CC3)C(=O)N2)c1 [Compound 351, 3-[8-(3-chloro-benzenesulfonyl)-4-oxo-1,3,8-triaza-spiro[4.5]dec-1-en-2-yl]-N,N-dimethyl-benzamide]  7.4%
23. O=C(NCc1ccccc1)c1cccc(C2=NC3(CCN(S(=O)(=O)c4cccc(Cl)c4)CC3)C(=O)N2)c1 [Compound 350, N-benzyl-3-[8-(3-chloro-benzenesulfonyl)-4-oxo-1,3,8-triaza-spiro[4.5]dec-1-en-2-yl]-benzamide]  5.5%
